# Experiments:
# [1] = Solubility in water (visual, confirmed by HPLC assay of a saturated solution); assay type: physicochemical; settings: thermodynamic from solid
# Procedure: The visual solubility was confirmed by an HPLC assay of a saturated solution. Solubility: >100 mg/ml.
# [2] = Solid state stability of the drug substance (storage, HPLC assay); assay type: physicochemical; settings: 1 month
# Procedure: The solid state stability of the drug substance was determined by storing approximately 1.0 g of the material in a glass bottle at a) 40° C./75% Relative Humidity (RH), open exposure, for 1 month and b) at 50° C., closed, for 1 month. The material was assayed by HPLC for final content and degradation products in both cases.
smiles,measurement,setting,value
"CCS(=O)(=O)O.CN(CCOc1ccc(CC2SC(=O)NC2=O)cc1)c1ccccn1 (centres unmarked) [Ethanesulfonate, 5-[4-[2-(N-methyl-N-(2-pyridyl)amino)ethoxy]benzyl]thiazolidine-2,4-dione ethanesulfonate]",solubility,[1],> 100 mg/mL
same,Degradation (HPLC degradation products),"[2]; 40° C./75% RH, open exposure",No significant degradation observed
same,HPLC assay for final content,"[2]; 40° C./75% RH, open exposure",99 % initial
same,Degradation (HPLC degradation products),"[2]; 50° C., closed",No significant degradation observed
same,HPLC assay for final content,"[2]; 50° C., closed",100 % initial
